For 22 compounds, IC50 and Activity results are on record in ChEMBL document CHEMBL4002625, “Synthesis and structure-activity relationship studies of phenolic hydroxyl derivatives based on quinoxalinone as aldose reductase inhibitors with antioxidant activity” (Bioorg Med Chem Lett, 2017).

Experiment [1] deals with Aldo-keto reductase family 1 member B1 (Rattus norvegicus, UniProt P07943). Put plainly: Inhibition of rat lens ALR2 using D,L-glyceraldehyde as substrate assessed as decrease in NADPH oxidation preincubated for 10 mins followed by substrate addition measured for 4 mins by spectrophotometer.
Experiment [2] can be described thus: Antioxidant activity assessed as DPPH radical scavenging activity at 100 uM after 240 mins by UV spectrophotometer relative to control. Type of experiment: functional. A general note: Loss of DPPH colour is used to gauge radical scavenging.
The nature of experiment [3]: Antioxidant activity assessed as DPPH radical scavenging activity at 50 uM after 240 mins by UV spectrophotometer relative to control. It is filed as functional.
Experiment [4] is described as follows: Antioxidant activity assessed as DPPH radical scavenging activity at 10 uM after 240 mins by UV spectrophotometer relative to control. Type of experiment: functional.

As a reminder, the IC50 is the point on the concentration scale where inhibition reaches its midpoint. As to `COc1ccc2nc(CCc3ccc(O)c(OC)c3)c(=O)n(CC(=O)O)c2c1`, the IC50 in experiment [1] is 847 nM. In addition, the Activity in experiment [2] was 28.3%.
Regarding `COc1ccc2c(c1)nc(/C=C/c1ccc(O)cc1)c(=O)n2CC(=O)O`, in experiment [1], the IC50 was found to be 98 nM. Moreover, the Activity in experiment [3] worked out at 27.6%; in experiment [2], 51.8%.
As to `COc1ccc2nc(-c3cccc(O)c3)c(=O)n(CC(=O)O)c2c1`, the IC50 in experiment [1] amounted to 3410 nM. Moreover, in experiment [2], the Activity is 8.5%.
Turning to `COc1ccc2c(c1)nc(-c1ccccc1)c(=O)n2CC(=O)O`, the IC50 in experiment [1] was determined as 6820 nM.
On to `O=C(O)Cn1c(=O)c(-c2ccccc2)nc2ccc(O)cc21`, for which the IC50 in experiment [1] was 3950 nM. The Activity in experiment [2] came out at 19.1%.
`COc1ccc2c(c1)nc(-c1c(O)cc(O)cc1O)c(=O)n2CC(=O)O`: the IC50 in experiment [1] is 273 nM. The values for the Activity in experiment [3], in experiment [2] and in experiment [4] were 53.7%, 68.7% and 36.4%, respectively.
As to `O=C(O)Cn1c(=O)c(/C=C/c2ccc(O)c(O)c2)nc2cc(O)ccc21`, the IC50 in experiment [1] stood at 159 nM. In addition, the values for the Activity in experiment [3], in experiment [2] and in experiment [4] were 77.8%, 90.4% and 64.2%, respectively.
Consider `COc1ccc2nc(/C=C/c3ccc(O)cc3)c(=O)n(CC(=O)O)c2c1`, for which the IC50 in experiment [1] came out at 59 nM. Moreover, the Activity came out at 34.3% in experiment [3] and 59.2% in experiment [2].
With `COc1ccc2nc(CCc3ccc(O)cc3)c(=O)n(CC(=O)O)c2c1`, in experiment [1], the IC50 was 508 nM. In experiment [2], the Activity is 20.7%.
Turning to `COc1ccc2nc(-c3ccccc3)c(=O)n(CC(=O)O)c2c1`, the IC50 in experiment [1] came to 5310 nM.
For the compound `COc1ccc2nc(/C=C/c3ccc(O)c(OC)c3)c(=O)n(CC(=O)O)c2c1`, in experiment [1], the IC50 stood at 210 nM. Moreover, the values for the Activity in experiment [3], in experiment [2] and in experiment [4] were 65.9%, 83.5% and 42.2%, respectively.
In the case of `COc1ccc2nc(-c3c(O)cc(O)cc3O)c(=O)n(CC(=O)O)c2c1`, in experiment [1], the IC50 was 116 nM. In addition, the figures for the Activity in experiment [3], in experiment [2] and in experiment [4] were 69.3%, 80.6% and 40.6%, respectively.
With `COc1ccc2nc(-c3cc(O)ccc3O)c(=O)n(CC(=O)O)c2c1`, the IC50 in experiment [1] was 865 nM. In addition, the Activity in experiment [2] was 25.4%.
Taken in the same sequence, the figures for `O=C(O)Cn1c(=O)c(-c2ccccc2)nc2cc(O)ccc21` were 4290 nM and 15.8%.
Regarding `COc1ccc2nc(-c3ccc(O)cc3)c(=O)n(CC(=O)O)c2c1`, the IC50 in experiment [1] came to 2080 nM. The Activity in experiment [2] stood at 12.3%.
In the case of `O=C(O)Cn1c(=O)c(/C=C/c2ccc(O)c(O)c2)nc2ccc(O)cc21`, the IC50 in experiment [1] was found to be 102 nM. Further, the Activity in experiment [3] came to 82.1%; in experiment [2] it was 96.2%; in experiment [4] it was 70.5%.
In the same order, the values of `COc1ccc2c(c1)nc(/C=C/c1ccc(O)c(OC)c1)c(=O)n2CC(=O)O` are 185 nM, 61.4%, 74.9% and 39.7%.
With `Cc1c(C)c2c(c(C)c1O)CCC(C)(C(=O)O)O2` (stereo not given), the Activity in experiment [3] turned out to be 92.7%; in experiment [2], 96.5%; in experiment [4], 89.3%.
`COc1ccc2nc(-c3ccc(O)cc3O)c(=O)n(CC(=O)O)c2c1`: in experiment [1], the IC50 turned out to be 179 nM. For the same compound, the Activity in experiment [2] was 37.2%.
Taken in the same sequence, the figures for `COc1ccc2c(c1)nc(CCc1ccc(O)c(OC)c1)c(=O)n2CC(=O)O` were 983 nM and 31.9%.
Take `COc1ccc2nc(/C=C/c3ccccc3)c(=O)n(CC(=O)O)c2c1`: the IC50 in experiment [1] turned out to be 924 nM.
The same measure, in the same setting: the result for `COc1ccc2nc(CCc3ccccc3)c(=O)n(CC(=O)O)c2c1` reads 1300 nM.
